Test results as given in patent US9880084B2, “Apparatus for separation of particles” (THE UNIVERSITY OF BRITISH COLUMBIA, priority 2011, dated 2018).

Test system: red blood cells
Assay: Red blood cell deformability analysis in microfluidic funnel constriction device (threshold pressure / cortical tension)
Type: cell-based
Settings: for Average cortical tension calculated based on equation (1): number in brackets = cells tested
Protocol: The deformability of red blood cells was evaluated using a microfluidic cell separation apparatus. An apparatus comprising a serial funnel configuration (schematically represented in FIG. 4) was employed, with funnel constructions of W0=0.5, 1, 1.5, 2, 3, 4, 5 and 6, 7 μm in series. As red blood cells are toroid or disc-shaped, rather than generally spherical, in the absence of movement restriction, they may progress through the device as a ‘flat’ disk (e.g. sideways), or ‘on edge’ (substantially upright, like a wheel). A channel with a height of about 2-3 μm or less will confine the majority of red blood cells to migrate as a ‘flat disk, while a channel with a height greater than about 3-4 μm will allow the red blood cell to migrate in either configuration, or folded or at an angle. Thus, the apparatus was configured to provide a channel depth of about 3 μm, which confines the cell to move flat into the funnel, not to stand up and fold as it traverses through. The threshold pressure required to push the cell through the funnel is measured as an indicator of the whole cell rigidity or deformability. The minimum applied pressure differential is ˜0.3 Pa. Accordingly, the cortical tension of the cell can be measured based on the information of the cell radius, funnel geometry and measured threshold pressure, as governed by equation (1) above derived from Laplace law PMS (phenazine methosulfate) generates superoxide from within the cell in the same way as the auto-oxidation process inside of the sickled red blood cell (RBC). In response to oxidation, the cell membrane stiffens. This induced stiffening may be employed to simulate the microrheologic properties of dense and/or dehydrated sickle cells (Hebbel, R. P., A. Leung, and N. Mohandas, Oxidation-Induced Changes in Microrheologic Properties of the Red-Blood-Cell Membrane. Blood, 1990. 76(5): p. 1015-1020, Hebbel, R. P., The sickle erythrocyte in double jeopardy: autoxidation and iron decompartmentalization. Seminars in hematology, 1990. 27(1): p. 51-69, and references therein). Here we use microfluidic device to measure the rigidity of PMS treated red blood cells compared to untreated (control) red blood cells, as well as the degree of rigidity change corresponding to different concentration of PMS. RBCs were suspended at 20% hematocrit in balanced salt solution with antibiotics. The RBC suspensions were then modified with 0, 10, 25, and 50 μM PMS for 60 minutes, followed by dilution 200:1 using phosphate buffered saline for use with the apparatus. The PMS treated RBCs and control RBCs were tested to investigate the effect of PMS on rigidity and/or deformability of the RBCs. Measured threshold pressures are an indication of the changes in deformability. […] Threshold pressures were measured of RBC squeezing through 1.1 μm and 1.4 μm constrictions.

`COS(=O)(=O)[O-].C[n+]1c2ccccc2nc2ccccc21` [PMS, phenazine methosulfate] was tested, and the “Threshold pressure of RBC squeezing through constrictions” value (1.1 μm and 1.4 μm constrictions, 0, 10, 25, 50 μM PMS, FIG. 15) was “increases as the concentration increases”, the “Deformability of the red cell membrane” value (PMS 10 to 50 μM) was “decreases as the PMS concentration increases” and the “Average cortical tension calculated based on equation (1)” value (RBC treated with 10 μmol PMS for 60 minutes) was 2.29 ± 0.19 (7) pN/μm. The “Average cortical tension calculated based on equation (1)” value (RBC treated with 25 μmol PMS for 60 minutes) was 3.38 ± 0.30 (7) pN/μm, the “Average cortical tension calculated based on equation (1)” value (RBC treated with 50 μmol PMS for 60 minutes) was 4.17 ± 0.19 (8) pN/μm and the “Red cell rigidity versus normal control RBC” value (fresh from the PMS treatment) was “obvious increase in rigidity”.
